Columns and labels:
Assay type in all cases: cell-based
ANGPTL3 = assay: RNA-seq of ANGPTL3 expression in compound-treated primary human hepatocytes; conditions: for ANGPTL3 Fold Change (Log2): primary human hepatocytes (Table 12)
How it was run: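 Cryopreserved primary human hepatocytes from three donors, plated at 375,000 cells/well, switched to complete or modified maintenance medium, then dosed with compound (stocks at 1000× final) for about 18 h. Poly(A) mRNA was sequenced directionally, mapped to GRCh38 with STAR, and gene-level abundance (counts, FPKM) estimated with RSEM against GENCODE 24.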

LDLR = assay: RNA-seq of LDLR expression in compound-treated primary human hepatocytes
Description: (§1) Human hepatocytes were obtained from two donors from Massachusetts General Hospital, namely MGH54 and MGH63, and one donor from Lonza, namely HUM4111B. Cryopreserved hepatocytes were cultured in plating media for 16 hours, transferred to maintenance media for 4 hours. Cultured on serum-free media for 2 hours, then a compound was added. The hepatocytes were maintained on the serum-free media for 16 hours prior to gene expression analysis. Primary human hepatocytes were stored in the vapor phase of a liquid nitrogen freezer (about −130° C.).
(§2) Human hepatocytes cultured as described above were plated in 24-well format, adding 375,000 cells per well in a volume of 500 ul plating medium. Four hours before treatment, cells were washed with PBS and the medium was changed to either: fresh maintenance medium (complete) or modified maintenance medium.
(§3) Compound stocks were prepared at 1000× final concentration and added in a 2-step dilution to the medium to reduce risk of a compound precipitating out of solution when added to the cells, and to ensure reasonable pipetting volumes. One at a time, each compound was first diluted 10-fold in warm (about 37° C.) modified maintenance medium (initial dilution=ID), mixed by vortexing, and the ID was diluted 100-fold into the cell culture (e.g. 5.1 ul into 1 well of a 24-well plate containing 0.5 mL medium). The plate was mixed by carefully swirling and after all wells were treated and returned to the incubator overnight. If desired, separate plates/wells were treated with vehicle-only controls and/or positive controls. If using multi-well plates, controls were included on each plate. After about 18 hours, cells were harvested for further analysis, e.g., ChIP-seq, RNA-seq, ATAC-seq, etc.
(§4) This protocol is a modified version of the following protocols: MagMAX mirVana Total RNA Isolation Kit User Guide (Applied Biosystems #MAN0011131 Rev B.0), NEBNext Poly(A) mRNA Magnetic Isolation Module (E7490), and NEBNext Ultra Directional RNA Library Prep Kit for Illumina (E7420) (New England Biosystems #E74901).
(§5) The MagMAX mirVana kit instructions (the section titled “Isolate RNA from cells” on pages 14-17) were used for isolation of total RNA from cells in culture. Two hundred μl of Lysis Binding Mix was used per well of the multiwell plate containing adherent cells (usually a 24-well plate).
(§6) For mRNA isolation and library prep, the NEBNext Poly(A) mRNA Magnetic Isolation Module and Directional Prep kit was used. RNA isolated from cells above was quantified, and prepared in […] of each sample in 50 μl of nuclease-free water. This protocol may be run in microfuge tubes or in a 96-well plate.
(§7) All pass filter reads from each sample were mapped against the human genome (assembly GRCh38/GCA_000001405.15 “no alt” analysis set merged with hs38d1/GCA_000786075.2) using two pass mapping via STAR version 2.5.3a (alignment parameters alignIntronMin=20; alignIntronMax=1000000; outFilterMismatchNmax=999; outFilterMismatchNoverLmax=0.05; outFilterType=BySJout; outFilterMultimapNmax=20; alignSJoverhangMin=8; alignSJDBoverhangMin=1; alignMatesGapMax=1000000) (Dobin et al., Bioinformatics (2012) 29(1):15-21). Genomic alignments were converted to transcriptome alignments based on reference transcript annotations from the Human GENCODE Gene Set release 24 (Harrow et al., Genome Res. (2012) 22(9): 1760-1774). Using unique and multimapped transcriptomic alignments, gene-level abundance estimates were computed using RSEM version 1.3.0 (Li and Dewey, BMC Bioinformatics (2011) 12:323) in a strand-aware manner, and including confidence interval sampling calculations, to arrive at posterior mean estimates (PME) of abundances (counts and normalized FPKM—fragments per kilobase of exon per million mapped fragments) from the underlying Bayesian model. Standard QC were applied (read integrity, mapping statistics, library complexity, fragment bias) to remove unsatisfactory samples.

PCSK9 = assay: RNA-seq of PCSK9 expression in compound-treated primary human hepatocytes
Description: as §1, §2, §3, §4, §5, §6, §7

SLC37A4 = assay: RNA-seq of SLC37A4 expression in compound-treated primary human hepatocytes
Description: as §1, §2, §3, §4, §5, §6, §7

UGT1A1 = assay: RNA-seq of UGT1A1 expression in compound-treated primary human hepatocytes
How it was run: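 Cryopreserved primary human hepatocytes from three donors were plated in 24-well format, then treated with compound diluted from 1000× stocks in serum-free maintenance medium for about 16–18 h. Poly(A) RNA-seq log2 fold change was computed against vehicle/pan-experiment controls. Significance required FPKM ≥1, log2FC ≥0.5 and q ≤0.05.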

SERPINC1 = assay: RNA-seq of SERPINC1 expression in compound-treated primary human hepatocytes; conditions: significance FPKM ≥1, log 2(fold change) ≥0.5, q-value ≤0.05
Description: Human hepatocytes were obtained from two donors from Massachusetts General Hospital, namely MGH54 and MGH63, and one donor from Lonza, namely HUM4111B. Cryopreserved hepatocytes were cultured in plating media for 16 hours, transferred to maintenance media for 4 hours. Cultured on serum-free media for 2 hours, then a compound was added. The hepatocytes were maintained on the serum-free media for 16 hours prior to gene expression analysis. Primary human hepatocytes were stored in the vapor phase of a liquid nitrogen freezer (about -130° C.). Human hepatocytes cultured as described above were plated in 24-well format, adding 375,000 cells per well in a volume of 500 ul plating medium. Four hours before treatment, cells were washed with PBS and the medium was changed to either: fresh maintenance medium (complete) or modified maintenance medium. Compound stocks were prepared at 1000× final concentration and added in a 2-step dilution to the medium to reduce risk of a compound precipitating out of solution when added to the cells, and to ensure reasonable pipetting volumes. […] The plate was mixed by carefully swirling and after all wells were treated and returned to the incubator overnight. If desired, separate plates/wells were treated with vehicle-only controls and/or positive controls. If using multi-well plates, controls were included on each plate. After about 18 hours, cells were harvested for further analysis, e.g., ChIP-seq, RNA-seq, ATAC-seq, etc. This protocol is a modified version of the following protocols: MagMAX mirVana Total RNA Isolation Kit User Guide (Applied Biosystems #MAN0011131 Rev B.0), NEBNext Poly(A) mRNA Magnetic Isolation Module ([…]), and NEBNext Ultra Directional RNA Library Prep Kit for Illumina ([…]) (New England Biosystems #E74901). […] Two hundred μl of Lysis Binding Mix was used per well of the multiwell plate containing adherent cells (usually a 24-well plate). For mRNA isolation and library prep, the NEBNext Poly(A) mRNA Magnetic Isolation Module and Directional Prep kit was used. RNA isolated from cells above was quantified, and prepared in […] of each sample in 50 μl of nuclease-free water. This protocol may be run in microfuge tubes or in a 96-well plate. […] Genomic alignments were converted to transcriptome alignments based on reference transcript annotations from the Human GENCODE Gene Set release 24 (Harrow et al., Genome Res. […] Using unique and multimapped transcriptomic alignments, gene-level abundance estimates were computed using RSEM version 1.3.0 (Li and Dewey, BMC Bioinformatics (2011) 12:323) in a strand-aware manner, and including confidence interval sampling calculations, to arrive at posterior mean estimates (PME) of abundances (counts and normalized FPKM-fragments per kilobase of exon per million mapped fragments) from the underlying Bayesian model. Standard QC were applied (read integrity, mapping statistics, library complexity, fragment bias) to remove unsatisfactory samples. Differential gene expression was computed using the negative binomial model implemented by DESeq2 version 1.16.1 (Love et al., Genome Biol. (2014) 15(12):550). […] RNA-seq signals were also normalized by read depth and visualized using the UCSC browser. To identify small molecules that modulate target gene expression, primary human hepatocytes were prepared as a monoculture, and at least one small molecule compound was applied to the cells. RNA-seq was performed to determine the effects of the compounds on the expression of the target genes in hepatocytes. Fold change was calculated by dividing the level of expression in the cell system that had been perturbed by the level of expression in an unperturbed system.

APOL1 = assay: RNA-seq of APOL1 expression in compound-treated primary human hepatocytes
Description: as §1, §2, §3, §4, §5, §6, §7

FN1 = assay: RNA-seq of FN1 expression in compound-treated primary human hepatocytes; conditions: perturbed vs unperturbed, significance FPKM ≥1, log 2(fold change) ≥0.5, q-value ≤0.05
Description: as §1, §2, §3, §4, §5, §6, §7

NOTCH2 = assay: RNA-seq of NOTCH2 expression in compound-treated primary human hepatocytes; conditions: primary human hepatocytes
How it was run: (§8)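 Cryopreserved primary human hepatocytes from three donors, switched to serum-free medium 2 h before compound addition, were harvested about 18 h after treatment. Poly(A) mRNA was sequenced and aligned to GENCODE release 24, with DESeq2 negative binomial differential expression. Fold change is the treated level over the unperturbed level.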

JAG1 = assay: RNA-seq of JAG1 expression in compound-treated primary human hepatocytes
How it was run: as §8

SERPINC1 mRNA = assay: Quantitative PCR of SERPINC1 mRNA in primary human hepatocytes (Lonza Hu4282) treated with compounds; conditions: 72 h treatment, HU4282 primary human hepatocytes, relative to DMSO control (FIG. 7)
MECP2 mRNA [1] = assay: MECP2 mRNA in primary human hepatocytes (donor 1, donor 2); conditions: human hepatocytes donor-2, average fold change
Description: as §1, §2, §3
Samples were amplified using Taqman probes from ThermoFisher.

MECP2 mRNA [2] = assay: MECP2 mRNA in stellate cells; conditions: average fold change

SMILES	ANGPTL3 Fold Change (Log2) (ANGPTL3)	LDLR Fold Change (Log2) (LDLR)	PCSK9 Fold Change (Log2) (PCSK9)	UGT1A1 Fold Change (Log2) (UGT1A1)	SERPINC1 Fold Change (Log2) (SERPINC1)	further results
C=CC(=O)Nc1cccc(Nc2nc(Nc3ccc(N4CCN(C(C)=O)CC4)cc3OC)ncc2C(F)(F)F)c1 [CO-1686 (Rociletinib), Rociletinib]	−0.67	0.51	0	–	–	–
COCCOc1ccc2c(c1)ncn2-c1ccc2cccc(N3CCC(N)CC3)c2n1 [CP-673451]	–	–	–	1.82	2.53	SLC37A4 Fold Change (Log2) (SLC37A4): 1.17 Log2
C[C@@H](Oc1cc(-c2cnn(C3CCNCC3)c2)cnc1N)c1c(Cl)ccc(F)c1Cl [Crizotinib]	–	–	–	1.18	–	APOL1 Fold Change (Log2) (APOL1; RNA-seq, primary human hepatocytes): −0.56 Log2; FN1 Fold Change (Log2) (FN1): −1.45 Log2
CS[C@H]1SC[C@H]2C(=O)N(C)[C@@H](C(C)C)C(=O)OC[C@@H](NC(=O)c3cnc4ccccc4n3)C(=O)N[C@@H](C)C(=O)N(C)[C@@H]1C(=O)N(C)[C@@H](C(C)C)C(=O)OC[C@@H](NC(=O)c1cnc3ccccc3n1)C(=O)N[C@@H](C)C(=O)N2C [Echinomycin]	–	–	–	1.10	2.29	SLC37A4 Fold Change (Log2) (SLC37A4): 1.59 Log2
COc1cccc2c1C(=O)c1c(O)c3c(c(O)c1C2=O)C[C@@](O)(/C(CO)=N/NC(=O)CCCCCN1C(=O)C=CC1=O)C[C@@H]3O[C@H]1C[C@H](N)[C@H](O)[C@H](C)O1 [INNO-206 (aldoxorubicin), aldoxorubicin]	–	–	–	–	1.00	NOTCH2 Fold Change (Log2) (NOTCH2): 0 Log2; JAG1 Fold Change (Log2) (JAG1; primary human hepatocytes): 0.84 Log2; Significant modulation of JAG1 (in words) (JAG1; summary of Table 6): significantly modulate only JAG1
O=c1cc(N2CCOCC2)oc2c(-c3ccccc3)cccc12 [LY294002]	0	0.48	−0.51	1.36	–	–
COc1ccc(-c2cc3c(C)nc(N)nc3n([C@H]3CC[C@H](OCCO)CC3)c2=O)cn1 [PF-04691502]	–	–	–	–	–	SERPINC1 mRNA change in response to compound (SERPINC1 mRNA): dose dependent upregulation; Human hep donor-2 MECP2 (Avg_FC) 1 uM (MECP2 mRNA [1]; compound 1 uM): 1.13; Human hep donor-2 MECP2 (Avg_FC) 10 uM (MECP2 mRNA [1]; compound 10 uM): 1.88; APOL mRNA linear fold change (APOL1; RNAseq, 10 uM dose (Table 20)): 0.5141; Stellate MECP2 (Avg_FC) 1 uM (MECP2 mRNA [2]; compound 1 uM): 1.27; Stellate MECP2 (Avg_FC) 10 uM (MECP2 mRNA [2]; compound 10 uM): 2.78; ANGPTL3-LINEAR FOLD CHANGE (ANGPTL3; additional compounds (Table 13), linear fold change): 0.4506
NS(=O)(=O)C#Cc1ccccc1 [Pifithrin-u, Pifithrin-μ]	−0.46	0.60	−0.54	–	0.79	–
COCCOc1ccc(N2CCN(CCn3ncc4c3nc(N)n3nc(-c5ccco5)nc43)CC2)cc1 [Preladenant]	−0.73	1.07	0	–	–	–
CN1CCC(CNc2ccc3ncc(-c4cccc(OC(F)(F)F)c4)n3n2)CC1 [SGI-1776]	−0.52	0.48	0	–	–	–
CNC(=O)Nc1ccc(-c2nc(N3CC4CCC(C3)O4)c3cnn(C4CCC5(CC4)OCCO5)c3n2)cc1 [WYE-125132 (WYE-132)]	−0.42	1.46	−0.91	–	–	–

— patent US20210161997A1, “TREATING DISEASES VIA TARGETED MODULATION OF GENE SIGNALING NETWORKS” (Camp4 Therapeutics Corporation, priority 2018, published 2021)
